Assay results as given in patent US10011595B2 (Merck Sharp & Dohme Corp., priority 2014, dated 2018).

Molecular target: human orexin-2 receptor (Homo sapiens (Human), UniProt O43614)
Experiment: FLIPR Ca2+ Flux Assay, orexin-2 receptor
Format: cell-based
Conditions: CHO cells expressing the human orexin-2 receptor; agonist 70 pM Ala-6,12 orexin-A; read-out: hOX2R FLIPR IC50
Procedure: In a typical experiment the OX1 and OX2 receptor antagonistic activity of the compounds of the present invention was determined in accordance with the following experimental method. For intracellular calcium measurements, Chinese hamster ovary (CHO) cells expressing the rat orexin-1 receptor or the human orexin-2 receptor, are grown in Iscove's modified DMEM containing 2 mM L-glutamine, […], 1% hypoxanthine-thymidine supplement, 100 U/ml penicillin, 100 μg/ml streptomycin and 10% heat-inactivated fetal calf serum (FCS). The cells are seeded at 20,000 cells/well into Becton-Dickinson black 384-well clear bottom sterile plates coated with poly-D-lysine. All reagents were from GIBCO-Invitrogen Corp. The seeded plates are incubated overnight at 37° C. and 5% CO2. Ala-6,12 human orexin-A as the agonist is prepared as a 1 mM stock solution in 1% bovine serum albumin (BSA) and diluted in assay buffer (HBSS containing 20 mM HEPES, 0.1% BSA and 2.5 mM probenecid, pH7.4) for use in the assay at a final concentration of 70 pM. Test compounds are prepared as 10 mM stock solution in DMSO, then diluted in 384-well plates, first in DMSO, then assay buffer. On the day of the assay, cells are washed 3 times with 100 μl assay buffer and then incubated for 60 min (37° C., 5% CO2) in 60 μl assay buffer containing 1 μM Fluo-4AM ester, 0.02% pluronic acid, and 1% BSA. The dye loading solution is then aspirated and cells are washed 3 times with 100 μl assay buffer. 30 μl of that same buffer is left in each well. Within the Fluorescent Imaging Plate Reader (FLIPR, Molecular Devices), test compounds are added to the plate in a volume of 25 μl, incubated for 5 min and finally 25 μl of agonist is added. Fluorescence is measured for each well at 1 second intervals for 5 minutes and the height of each fluorescence peak is compared to the height of the fluorescence peak induced by 70 pM Ala-6,12 orexin-A with buffer in place of antagonist. For each antagonist, IC50 value (the concentration of compound needed to inhibit 50% of the agonist response) is determined. Alternatively, compound potency can be assessed by a radioligand binding assay (described in Bergman et. al. Bioorg. Med. Chem. Lett. 2008, 18, 1425-1430) in which the inhibition constant (Ki) is determined in membranes prepared from CHO cells expressing either the OX1 or OX2 receptor. The intrinsic orexin receptor antagonist activity of a compound which may be used in the present invention may be determined by these assays.

Sequence of human orexin-2 receptor (O43614 whole entry): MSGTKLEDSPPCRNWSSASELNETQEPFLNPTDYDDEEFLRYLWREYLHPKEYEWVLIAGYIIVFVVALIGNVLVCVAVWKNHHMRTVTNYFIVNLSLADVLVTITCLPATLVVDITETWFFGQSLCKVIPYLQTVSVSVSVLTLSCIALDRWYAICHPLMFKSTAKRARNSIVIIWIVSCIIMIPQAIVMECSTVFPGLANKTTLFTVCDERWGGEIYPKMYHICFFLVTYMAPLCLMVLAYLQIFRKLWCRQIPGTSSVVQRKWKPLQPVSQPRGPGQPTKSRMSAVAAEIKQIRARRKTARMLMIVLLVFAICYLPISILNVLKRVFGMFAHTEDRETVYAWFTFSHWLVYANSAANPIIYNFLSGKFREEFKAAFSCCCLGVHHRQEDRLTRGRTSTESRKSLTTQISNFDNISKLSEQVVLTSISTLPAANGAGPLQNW

Row | SMILES | IC50 [nM]
1 | CCN(CCN(C)c1nccc(C(C)(C)O)n1)C(=O)c1ccc(OC)nc1C1CC1 [Example H-28, 2-cyclopropyl-N-ethyl-N-(2-((4-(2-hydroxypropan-2-yl)pyrimidin-2-yl)(methyl)amino)ethyl)-6-methoxynicotinamide] | 20
2 | CCN(CCN(C)c1cccc(C(C)(C)O)n1)C(=O)c1cccnc1OCC(F)(F)F [Example I-15, N-ethyl-N-(2-((6-(2-hydroxypropan-2-yl)pyridin-2-yl)(methyl)amino)ethyl)-2-(2,2,2-trifluoroethoxy)nicotinamide] | 306
3 | CCOc1cccc(C(=O)N(CC)CCN(C)c2cc(C#N)ccn2)c1OC [Example F-29, N-{2-[(4-cyanopyridin-2-yl)(methyl)amino]ethyl}-3-ethoxy-N-ethyl-2-methoxybenzamide] | 10000
4 | CCN(CCN(C)c1cc(C#N)ccn1)C(=O)c1cccnc1C(F)(F)F [Example F-8, N-{2-[(4-cyanopyridin-2-yl)(methyl)amino]ethyl}-N-ethyl-2-(trifluoromethyl)pyridine-3-carboxamide] | 1990
5 | CCN(CCN(C)c1nc(C)cc(C)n1)C(=O)c1ccccc1-n1cccn1 [Example B-14, N-(2-((4,6-dimethylpyrimidin-2-yl)(methyl)amino)ethyl)-N-ethyl-2-(1H-pyrazol-1-yl)benzamide] | 13.9
6 | CCCc1ccccc1C(=O)N(CC)CCN(C)c1nc(C)cc(C)n1 [Example B-16, N-{2-[(4,6-dimethylpyrimidin-2-yl)(methyl)amino]ethyl}-N-ethyl-2-propylbenzamide] | 19.9
7 | CCN(CCN(C)c1nc(C)cc(C)n1)C(=O)c1ccccc1OCC(F)F [Example B-20, 2-(2,2-difluoroethoxy)-N-{2-[(4,6-dimethylpyrimidin-2-yl)(methyl)amino]ethyl}-N-ethylbenzamide] | 9.2
8 | CCN(CCN(C)c1nc(C)cc(C)n1)C(=O)c1ccccc1C1CC1(F)F (centres unmarked) [Example B-29, 2-(2,2-difluorocyclopropyl)-N-{2-[(4,6-dimethylpyrimidin-2-yl)(methyl)amino]ethyl}-N-ethylbenzamide] | 18.9
9 | CCN(CCN(C)c1cc(C#N)ccn1)C(=O)c1ccccc1-n1cc(C)nn1 [Example F-21, N-{2-[(4-cyanopyridin-2-yl)(methyl)amino]ethyl}-N-ethyl-2-(4-methyl-1H-1,2,3-triazol-1-yl)benzamide] | 341
10 | CCN(CCN(C)c1nc(C)cc(C)n1)C(=O)c1nccnc1-n1nccn1 [Example B-15, N-(2-((4,6-dimethylpyrimidin-2-yl)(methyl)amino)ethyl)-N-ethyl-3-(2H-1,2,3-triazol-2-yl)pyrazine-2-carboxamide] | 1270
11 | CCN(CCN(C)c1cccc(C(C)(C)O)n1)C(=O)c1ccccc1OCC(F)F [Example I-4, 2-(2,2-difluoroethoxy)-N-ethyl-N-(2-((6-(2-hydroxypropan-2-yl)pyridin-2-yl)(methyl)amino)ethyl)benzamide] | 179
12 | CCN(CCN(C)c1cc(C#N)ccn1)C(=O)c1ccccc1OCC(F)(F)F [Example F-14, N-{2-[(4-cyanopyridin-2-yl)(methyl)amino]ethyl}-N-ethyl-2-(2,2,2-trifluoroethoxy)benzamide] | 77.4
13 | CCN(CCN(C)c1nccc(C(C)(C)O)n1)C(=O)c1cccnc1OC(C)C [Example H-14, N-ethyl-N-(2-((4-(2-hydroxypropan-2-yl)pyrimidin-2-yl)(methyl)amino)ethyl)-2-isopropoxynicotinamide] | 65.4
14 | CC(C)CN(CCN(C)c1cc(C#N)ccn1)C(=O)c1ccccc1-n1nccn1 [Example G-8, N-(2-((4-cyanopyridin-2-yl)(methyl)amino)ethyl)-N-isobutyl-2-(2H-1,2,3-triazol-2-yl)benzamide] | 12.2
15 | CCN(CCN(C)c1nccc(C(C)(C)O)n1)C(=O)c1cccnc1OCC(F)(F)F [Example H-17] | 21.7
16 | CCN(CCN(C)c1nccc(C(C)(C)O)n1)C(=O)c1ccccc1OCC(F)F [Example H-22, 2-(2,2-difluoroethoxy)-N-ethyl-N-(2-((4-(2-hydroxypropan-2-yl)pyrimidin-2-yl)(methyl)amino)ethyl) benzamide] | 17.7

Row | SMILES | IC50 [nM]
17 | CCN(CCN(CC(F)F)c1nc(C)cc(C)n1)C(=O)c1ccccc1-n1nccn1 [Example D-1, N-(2-((2,2-difluoroethyl)(4,6-dimethylpyrimidin-2-yl)amino)ethyl)-N-ethyl-2-(2H-1,2,3-triazol-2-yl)benzamide] | 56.1
18 | CCN(CCN(CC)c1nc(C)cc(C)n1)C(=O)c1ccccc1-n1nccn1 [Example C-1, N-(2-((4,6-dimethylpyrimidin-2-yl)(ethyl)amino)ethyl)-N-ethyl-2-(2H-H-1,2,3-triazol-2-yl)benzamide] | 36.6
19 | CCN(CCN(C)c1nc(C)cc(C)n1)C(=O)c1nccnc1-c1ccccn1 [Example B-33, N-{2-[(4,6-dimethylpyrimidin-2-yl)(methyl)amino]ethyl}-N-ethyl-3-pyridin-2-ylpyrazine-2-carboxamide] | 23
20 | CN(CCN(C)c1cc(C#N)ccn1)C(=O)c1ccccc1-n1nccn1 [Example G-1, N-(2-((4-cyanopyridin-2-yl)(methyl)amino)ethyl)-N-methyl-2-(2H-1,2,3-triazol-2-yl)benzamide] | 88
21 | CCN(CCN(C)c1cc(C#N)ccn1)C(=O)c1ccccc1-n1ccnn1 [Example F-28, N-{2-[(4-cyanopyridin-2-yl)(methyl)amino]ethyl}-N-ethyl-2-(1H-1,2,3-triazol-1-yl)benzamide] | 461
22 | CCN(CCN(C)c1cccc(C(C)(C)O)n1)C(=O)c1ccccc1OC(F)F [Example I-14, 2-(difluoromethoxy)-N-ethyl-N-(2-((6-(2-hydroxypropan-2-yl)pyridin-2-yl)(methyl)amino)ethyl)benz-amide] | 201
23 | CCN(CCN(C)c1cc(C#N)ccn1)C(=O)c1cccnc1OCc1ccccc1 [Example F-6, 2-(benzyloxy)-N-{2-[(4-cyanopyridin-2-yl)(methyl)amino]ethyl}-N-ethylpyridine-3-carboxamide] | 97.9
24 | CCN(CCN(C)c1nc(C)cc(C)n1)C(=O)c1ccccc1C1CCC1 [Example B-26, 2-cyclobutyl-N-{2-[(4,6-dimethylpyrimidin-2-yl)(methyl)amino]ethyl}-N-ethylbenzamide] | 20.4
25 | CCN(CCN(C)c1cc(C#N)ccn1)C(=O)c1ccccc1-n1ccnc1 [Example F-9, N-{2-[(4-cyanopyridin-2-yl)(methyl)amino]ethyl}-N-ethyl-2-(1H-imidazol-1-yl)benzamide] | 10000
26 | CCN(CCN(C)c1cccc(C#N)n1)C(=O)c1ccccc1-n1nccn1 [Example E-14, N-{2-[(6-cyanopyridin-2-yl)(methyl)amino]ethyl}-N-ethyl-2-(2H-1,2,3-triazol-2-yl)benzamide] | 569
27 | CCN(CCN(C)c1cccc(C(C)(C)O)n1)C(=O)c1cccnc1OC(C)C [Example I-21, N-ethyl-N-(2-((6-(2-hydroxypropan-2-yl)pyridin-2-yl)(methyl)amino)ethyl)-2-isopropoxynicotinamide] | 387
28 | CCOc1nc2cccc(C(=O)N(CC)CCN(C)c3cc(C#N)ccn3)c2[nH]1 [Example F-19, N-{2-[(4-cyanopyridin-2-yl)(methyl)amino]ethyl}-2-ethoxy-N-ethyl-1H-benzimidazole-7-carboxamide] | 10000
29 | CCN(CCN(C)c1cccc(C(C)(C)O)n1)C(=O)c1ccccc1OC(F)(F)F [Example I-12, N-ethyl-N-(2-((6-(2-hydroxypropan-2-yl)pyridin-2-yl)(methyl)amino)ethyl)-2-(trifluoromethoxy)benzamide] | 73.7
30 | CCN(CCN(C)c1cc(C#N)ccn1)C(=O)c1cc(C)ccc1-n1nccn1 [Example F-20, N-{2-[(4-cyanopyridin-2-yl)(methyl)amino]ethyl}-N-ethyl-5-methyl-2-(2H-1,2,3-triazol-2-yl)benzamide] | 16.2
31 | CCN(CCN(C)c1ncc(Cl)c(C(F)(F)F)n1)C(=O)c1ccccc1-n1nccn1 [Example E-16, N-(2-{[5-chloro-4-(trifluoromethyl)pyrimidin-2-yl](methyl)amino}ethyl)-N-ethyl-2-(2H-1,2,3-triazol-2-yl)benzamide] | 84.7
32 | CCN(CCN(C)c1nccc(C(C)(C)O)n1)C(=O)c1ccccc1OC(F)F [Example H-18, 2-(difluoromethoxy)-N-ethyl-N-(2-((4-(2-hydroxypropan-2-yl)pyrimidin-2-yl)(methyl)amino)ethyl) benzamide] | 49.3
